Tested on: A/WSN/33-nanoLuc or Ca/09
Type: cell-based, influenza A virus

O=c1nc(NO)ccn1[C@@H]1O[C@H](CO)[C@@H](O)[C@H]1O [NHC, N^4-hydroxycytidine]
drug concentration resulting in virus extinction: ≥ 4 µM
repeat exposure of NHC-experienced virus populations: again rapidly sterilizing

Reference: PMC6848974 (Science translational medicine, 2019)
